The results in this text go back to ChEMBL document CHEMBL3864152, “Discovery of ursolic acid prodrug (NX-201): Pharmacokinetics and in vivo antitumor effects in PANC-1 pancreatic cancer” (Bioorg Med Chem Lett, 2016).

The structures appear in SMILES notation. The source made the active and inactive calls. The calls are words filed in the database; no cut-off is given here.

Series [1] in a line: Tmax in rat at 25 mg/kg, po. Type of series: ADME, organism-based. The note with it: in vivo.
A short description of series [2]: Cmax in rat at 25 mg/kg, po. The class given is ADME, organism-based. More on the design: dose 25 mg/kg, route oral. The note with it: in vivo.
The nature of series [3]: AUC in rat at 25 mg/kg, po. The note with it: in vivo. Type of series: ADME, organism-based.
The nature of series [4]: Half life in rat at 25 mg/kg, po. Type of series: ADME, organism-based. As to conditions: in vivo.
A short description of series [5]: Oral bioavailability in rat at 25 mg/kg. Type of series: ADME, organism-based. The note with it: in vivo.
Series [6] has as its system PANC-1. The experiment in a line: Antitumor activity against human PANC1 cells xenografted in po dosed non-obese diabetic […] SCID mouse assessed as tumor growth inhibition administered daily for 4 weeks. The class given is functional, organism-based.
Series [7] deals with PANC-1. The series can be described thus: Antitumor activity against human PANC1 cells xenografted in non-obese diabetic […] SCID mouse assessed as tumor growth inhibition at 50 mg/kg, po administered daily measured after 3 weeks in presence of gemcitabine. Type of series: functional, organism-based.
The test system of series [8] is Mus musculus. The experiment in a line: Toxicity in non-obese diabetic […] SCID mouse xenografted with human PANC1 cells assessed as change in body weight at 25 to 100 mg/kg, po administered daily for 4 weeks. The class given is organism-based, PANC-1. As to conditions: in vivo, 672 h.
Series [9] has as its system Mus musculus. The series can be described thus: Toxicity in non-obese diabetic […] SCID mouse xenografted with human PANC1 cells assessed as change in body weight at 50 mg/kg, po administered daily for 4 weeks in presence of gemcitabine. The class given is organism-based, PANC-1. The note with it: in vivo, 672 h. (In xenograft studies the graft and the host belong to different species.)

Series [10] can be described thus: Oral bioavailability in Sprague-Dawley rat at 25 mg/kg. The class given is ADME, organism-based. As to conditions: in vivo.
Series [11] is described as follows: Dissociation constant, pKa of the compound. Type of series: physicochemical.
The nature of series [12]: Tmax in rat at 0.5 mg/kg, iv. The class given is ADME, organism-based. As to conditions: in vivo.
A short description of series [13]: AUC in rat at 0.5 mg/kg, iv. The class given is ADME, organism-based. The note with it: in vivo.
The nature of series [14]: Half life in rat at 0.5 mg/kg, iv. Type of series: ADME, organism-based. The note with it: in vivo.
For series [15], the system named is Mus musculus. The experiment in a line: Toxicity in non-obese diabetic […] SCID mouse xenografted with human PANC1 cells assessed as change in body weight at 50 mg/kg, po administered daily for 4 weeks. As to conditions: in vivo, 672 h. The class given is organism-based, PANC-1.
Another series in a line: in vivo. As to conditions: rat, iv, 0.5 mg/kg.
For series [16], the system named is PANC-1. The experiment in a line: Antitumor activity against human PANC1 cells xenografted in non-obese diabetic […] SCID mouse assessed as tumor growth inhibition at 40 mg/kg, iv administered 2 times per week for 4 weeks. Type of series: functional, organism-based.
For series [17], the system named is Mus musculus. The experiment in a line: Toxicity in non-obese diabetic […] SCID mouse xenografted with human PANC1 cells assessed as change in body weight at 40 mg/kg, iv administered 2 times per week for 4 weeks. The note with it: in vivo, 672 h. Type of series: organism-based, PANC-1.

Description for in vivo: Cmax in rat at 0.5 mg/kg, iv

By Tmax is commonly meant the time at which the peak concentration occurs. Broadly, the Cmax is the highest concentration seen after dosing. What is called AUC is the area under the concentration-time curve, a measure of exposure. Low readings indicate low exposure, high ones high exposure. The half-life is how long it takes for the measured level to halve. The term bioavailability denotes the share of a dose that reaches the circulation, judged against a reference dose that is usually intravenous. Read a high bioavailability as good availability. In the case of `Cc1oc(=O)oc1COC(=O)[C@]12CC[C@@H](C)[C@H](C)[C@H]1C1=CC[C@@H]3[C@@]4(C)CC[C@H](O)C(C)(C)[C@@H]4CC[C@@]3(C)[C@]1(C)CC2`, the time to peak (Tmax) in series [1] was found to be 87.6 min. In addition, the Cmax in series [2] came to 30.3 ng/mL. In series [3], this molecule gave an AUC of 132 ng·h/mL. This molecule also had a half-life in series [4] of 283 min. The same molecule yielded a bioavailability in series [5] of 2.3%. The TGI entry in the series on PANC-1 [6] is “Dose-dependent effect”. In addition, in the series with PANC-1 [7], the TGI result was “Active”. The Activity result in the series with Mus musculus [8] and with Mus musculus [9] was “Non-Toxic” throughout.

In series [10], `CC1(C)CC[C@]2(C(=O)O)CC[C@]3(C)C(=CC[C@@H]4[C@@]5(C)CC[C@H](O)C(C)(C)[C@@H]5CC[C@]43C)[C@@H]2C1` [OLEANOLIC_ACID] had a bioavailability of 0.7%.

What is called pKa is the pH at which an ionisable group is half protonated. The low end stands for a stronger acid or weaker base, the high end for a weaker acid or stronger base. Regarding `C[C@H]1[C@H](C)CC[C@]2(C(=O)O)CC[C@]3(C)C(=CC[C@@H]4[C@@]5(C)CC[C@H](O)C(C)(C)[C@@H]5CC[C@]43C)[C@H]12` [URSOLIC ACID], the pKa in series [11] came out at 5.29. The results for the Tmax in series [12] and in series [1] were 4.8 min and 15 min, respectively. The results for the Cmax (in [2]; in “in vivo”) were 1.9 ng/mL and 378 ng/mL, respectively. In addition, the area under the curve (AUC) in series [13] is 114 ng·h/mL; in series [3], 0.6 ng·h/mL. Also, the values for the half-life in series [14] and in series [4] were 93 min and 18 min, respectively. The molecule further registered a bioavailability in series [5] of less than 0.01%. The Activity entry with Mus musculus [15] is on record as “Non-Toxic”.

`Nc1ccn([C@@H]2O[C@H](CO)[C@@H](O)C2(F)F)c(=O)n1` [GEMCITABINE]: the TGI entry in the series with PANC-1 [16] was “Active”. Further, the Activity entry in the series on Mus musculus [17] is recorded as “Non-Toxic”.
